Results on 17 compounds are retold here after patent US20240217967A1, “INDOLINE DERIVATIVES AS DDRS INHIBITORS” (CHIESI FARMACEUTICI S.P.A., priority 2021, published 2024).

“And” between values parts separate entries of the source, which are not always exact repeats. Equal values may be shown once. Read-outs that look alike come from different tables or passages of the source.

Assay [1] deals with T1, DDR1 (Homo sapiens, UniProt Q08345). The experiment in a line: DDR1 LanthaScreen Europium Kinase Binding assay. Here is the method:
(§1) DDR1 and DDR2 binding assays were performed using Life Technologies LanthaScreen™ Europium Kinase Binding assay. The compounds were incubated with 5 nM DDR1 (Carna Biosciences) or 5 nM DDR2 (Life Technologies) for 1 hour at room temperature in white 384-well OptiPlate (PerkinElmer), containing 20 nM or 10 nM Kinase Tracer 178 respectively and 2 nM Europium labelled anti-GST antibody (Life Technologies) in assay buffer (50 mM HEPES pH 7.5, 10 mM MgCI2, 1 mM EGTA and 0.01% BRIJ35). The ratio of fluorescence emission 665 nm/615 nm after excitation at 340 nm was obtained using the Tecan Spark 20M plate reader. IC50 values were determined in GraphPad Prism 7.0 software, using 4 parameter model: log(inhibitor) vs. response. IC50 values were converted in Ki using the Cheng-Prusoff equation (Ki=IC50/(1+[Tracer]/Kd).

In assay [2] the target is T2, DDR2 (Homo sapiens, UniProt Q16832).
T2 sequence (Q16832 22-855): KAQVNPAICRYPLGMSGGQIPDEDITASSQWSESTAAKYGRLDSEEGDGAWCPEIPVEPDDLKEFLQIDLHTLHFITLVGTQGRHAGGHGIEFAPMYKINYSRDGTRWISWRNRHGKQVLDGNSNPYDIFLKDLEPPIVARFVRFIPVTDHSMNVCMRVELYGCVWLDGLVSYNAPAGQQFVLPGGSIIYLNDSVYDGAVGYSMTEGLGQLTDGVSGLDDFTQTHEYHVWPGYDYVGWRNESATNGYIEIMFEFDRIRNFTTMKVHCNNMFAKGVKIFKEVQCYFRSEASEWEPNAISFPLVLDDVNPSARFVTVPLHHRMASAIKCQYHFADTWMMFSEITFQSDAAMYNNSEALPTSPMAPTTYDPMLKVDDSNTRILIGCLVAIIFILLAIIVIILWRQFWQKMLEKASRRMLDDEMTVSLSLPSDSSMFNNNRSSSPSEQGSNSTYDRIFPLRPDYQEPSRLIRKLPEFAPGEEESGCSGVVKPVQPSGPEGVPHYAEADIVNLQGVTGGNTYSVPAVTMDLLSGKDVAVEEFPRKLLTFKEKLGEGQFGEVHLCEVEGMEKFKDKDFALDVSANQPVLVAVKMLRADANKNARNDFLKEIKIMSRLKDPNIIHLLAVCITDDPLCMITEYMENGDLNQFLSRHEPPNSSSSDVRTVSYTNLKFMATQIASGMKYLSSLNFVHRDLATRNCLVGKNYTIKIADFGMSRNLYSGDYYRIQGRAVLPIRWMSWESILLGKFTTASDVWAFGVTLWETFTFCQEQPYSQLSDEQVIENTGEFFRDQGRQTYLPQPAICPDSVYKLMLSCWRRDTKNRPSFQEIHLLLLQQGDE
The assay can be described thus: DDR2 LanthaScreen Europium Kinase Binding assay. How it is done:
as §1

The target of assay [3] is T1, DDR1. The experiment in a line: DDR1 cell based assay (PathHunter U2OS DDR1, collagen II stimulation). The settings on record: U2OS-DDR1 cells, bovine Type II Collagen stimulation. Here is the method:
The inhibition of DDR1 receptor activation by compounds was evaluated by PathHunter® U2OS DDR1 assay (Eurofins DiscoverX), according to the manufacturer's instructions. Briefly, U2OS-DDR1 cells were seeded in white 384-well plates at a density of 5000 cells/well and incubated for 2 hours at 37° C. and 5% CO2. Cells were then treated with compounds at different concentrations and incubated for 30 minutes, before stimulation with bovine Type II Collagen 20 μg/ml and incubation overnight at 37° C. and 5% CO2. PathHunter Detection Reagents were prepared according to the protocol provided by DiscoverX and 20 μl/well of this mix were added to each well. After incubating the plates for 1 hour at room temperature in the dark, luminescence signal was acquired with a plate reader. Raw data were normalized to vehicle control (0% for normalization) and positive control (100% for normalization; cells treated with 20 μg/ml collagen II) and IC50 parameters were calculated in GraphPad Prism 8.0 software, using sigmoidal dose-response curve fitting with variable slope.

The mark [4] stands for this setting: binding affinity, IC50 converted in Ki using Cheng-Prusoff, read-out: Ki DDR1.
Setting [5] is: binding affinity, IC50 converted in Ki using Cheng-Prusoff, read-out: Ki DDR2.
The mark [6] stands for this setting: binding assay, Ki from IC50 by Cheng-Prusoff, read-out: DDR1 Ki.
Where [7] appears, read: binding assay, Ki from IC50 by Cheng-Prusoff, read-out: DDR2 Ki.

T1 sequence (Q08345 19-913): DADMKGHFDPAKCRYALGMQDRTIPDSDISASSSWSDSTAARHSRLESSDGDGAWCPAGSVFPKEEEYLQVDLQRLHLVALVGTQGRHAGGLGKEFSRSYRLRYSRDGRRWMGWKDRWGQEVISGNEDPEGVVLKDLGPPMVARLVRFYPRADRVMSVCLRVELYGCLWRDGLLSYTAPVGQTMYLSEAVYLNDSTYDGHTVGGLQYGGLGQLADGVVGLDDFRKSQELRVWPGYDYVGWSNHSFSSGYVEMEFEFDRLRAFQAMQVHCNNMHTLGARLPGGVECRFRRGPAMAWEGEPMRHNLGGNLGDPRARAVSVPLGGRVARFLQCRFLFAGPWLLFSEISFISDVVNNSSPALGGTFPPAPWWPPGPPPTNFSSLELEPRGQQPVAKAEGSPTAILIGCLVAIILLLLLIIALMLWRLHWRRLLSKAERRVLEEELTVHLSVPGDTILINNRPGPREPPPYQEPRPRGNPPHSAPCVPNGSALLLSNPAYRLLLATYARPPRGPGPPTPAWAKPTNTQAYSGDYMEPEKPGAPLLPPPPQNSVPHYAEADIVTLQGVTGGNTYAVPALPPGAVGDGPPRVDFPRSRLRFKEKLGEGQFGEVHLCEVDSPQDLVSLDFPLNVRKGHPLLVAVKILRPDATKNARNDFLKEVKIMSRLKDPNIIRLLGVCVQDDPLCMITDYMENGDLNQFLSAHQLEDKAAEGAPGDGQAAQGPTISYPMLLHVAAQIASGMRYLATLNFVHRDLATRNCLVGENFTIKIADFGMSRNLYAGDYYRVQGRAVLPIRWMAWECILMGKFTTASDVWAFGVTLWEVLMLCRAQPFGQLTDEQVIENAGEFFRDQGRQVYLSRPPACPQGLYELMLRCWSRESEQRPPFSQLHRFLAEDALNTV

In general, Ki refers to the equilibrium dissociation constant of an inhibitor or competing ligand from its target. A word on the IC50: it is the concentration that gives 50% inhibition. For `Cc1cn(-c2cc(NC(=O)c3ccc4c(c3)N(Cc3cnc5cnccn35)CC4C)cc(C(F)(F)F)c2)cn1` (racemic) [Example 26, 1-(imidazo[1,2-a]pyrazin-3-ylmethyl)-3-methyl-N-(3-(4-methyl-1H-imidazol-1-yl)-5-(trifluoromethyl)phenyl)indoline-6-carboxamide], the Ki in assay [1] (setting [4]) and in assay [2] (setting [5]) was < 25 nM throughout. In addition, the IC50 in assay [3] lay within 25 to 50 nM.
As for `CC1CN(Cc2cnc3[nH]ncc3c2)c2cc(C(=O)Nc3cccc(C(F)(F)F)c3)ccc21` (racemic) [Example 30, 1-((1H-pyrazolo[3,4-b]pyridin-5-yl)methyl)-3-methyl-N-(3-(trifluoromethyl)phenyl)indoline-6-carboxamide], the Ki in assay [1] (setting [4]) and in assay [2] (setting [5]) was < 25 nM in each case. Further, the IC50 in assay [3] is < 25 nM.
Turning to `CCC1CN(Cc2cnc3cnccn23)c2cc(C(=O)Nc3cc(-n4cnc(C)c4)cc(C(F)(F)F)c3)ccc21` (single isomer, unassigned) [Example 64, 3-ethyl-1-(imidazo[1,2-a]pyrazin-3-ylmethyl)-N-(3-(4-methyl-1H-imidazol-1-yl)-5-(trifluoromethyl)phenyl)indoline-6-carboxamide], the Ki in assay [1] (setting [4]) and in assay [2] (setting [5]) was < 25 nM throughout. This compound registered an IC50 in assay [3] of 25 to 50 nM.
Turning to `Cc1cn(-c2cc(NC(=O)c3ccc4c(c3)N(Cc3ccc5[nH]cnc5c3)CC4)cc(C(F)(F)F)c2)cn1` [Example 4, 1-((1H-benzo[d]imidazol-5-yl)methyl)-N-(3-(4-methyl-1H-imidazol-1-yl)-5-(trifluoromethyl)phenyl)indoline-6-carboxamide], the Ki in assay [1] (setting [4]) and in assay [2] (setting [5]) was < 25 nM in each case. In assay [3], this compound showed an IC50 of 25 to 50 nM.
`Cc1cn(-c2cc(NC(=O)c3ccc4c(c3)N(Cc3ccc5ccncc5c3)CC4)cc(C(F)(F)F)c2)cn1` [Example 5, 1-(isoquinolin-7-ylmethyl)-N-(3-(4-methyl-1H-imidazol-1-yl)-5-(trifluoromethyl)phenyl)indoline-6-carboxamide]: the Ki in assay [1] (setting [4]) was 25 to 50 nM; in assay [2] (setting [5]) it was 50 to 80 nM. Further, in assay [3], the IC50 lay within 25 to 50 nM.
Turning to `Cc1cn(-c2cc(NC(=O)c3ccc4c(c3)N(Cc3ccc5[nH]ncc5c3)CC4)cc(C(F)(F)F)c2)cn1` [Example 8, 1-((1H-indazol-5-yl)methyl)-N-(3-(4-methyl-1H-imidazol-1-yl)-5-(trifluoromethyl)phenyl)indoline-6-carboxamide], the Ki in assay [1] (setting [4]) and in assay [2] (setting [5]) was 25 to 50 nM each time. For the same compound, the IC50 in assay [3] fell in the range of 50 to 80 nM.
For `CN1CCN(Cc2cc(NC(=O)c3ccc4c(c3)N(Cc3cnc5cnccn35)CC4)cc(C(F)(F)F)c2)CC1` [Example 10, 1-(imidazo[1,2-a]pyrazin-3-ylmethyl)-N-(3-((4-methylpiperazin-1-yl)methyl)-5-(trifluoromethyl)phenyl)indoline-6-carboxamide], the Ki in assay [1] (setting [4]) and in assay [2] (setting [5]) was < 25 nM each time. This compound also gave an IC50 in assay [3] of 25 to 50 nM.
Consider `CN1CCN(Cc2cc(NC(=O)c3ccc4c(c3)N(Cc3cnc5ccccn35)CC4)cc(C(F)(F)F)c2)CC1` [Example 11, 1-(imidazo[1,2-a]pyridin-3-ylmethyl)-N-(3-((4-methylpiperazin-1-yl)methyl)-5-(trifluoromethyl)phenyl)indoline-6-carboxamide], for which the Ki in assay [1] (setting [4]) and in assay [2] (setting [5]) was < 25 nM each time. In addition, the IC50 in assay [3] was 50 to 80 nM.
`Cc1cn(-c2cc(NC(=O)c3ccc4c(c3)N(C(=O)c3cnc5ccccn35)CC4)cc(C(F)(F)F)c2)cn1` [Example 12, 1-(imidazo[1,2-a]pyridine-3-carbonyl)-N-(3-(4-methyl-1H-imidazol-1-yl)-5-(trifluoromethyl)phenyl)indoline-6-carboxamide]: the Ki in assay [1] (setting [4]) and in assay [2] (setting [5]) was < 25 nM in each case. Also, the IC50 in assay [3] is 50 to 80 nM.
For the compound `Cc1cn(-c2cc(NC(=O)c3ccc4c(c3)N(C(=O)c3cnc5cnccn35)CC4)cc(C(F)(F)F)c2)cn1` [Example 13, 1-(imidazo[1,2-a]pyrazine-3-carbony1)-N-(3-(4-methyl-1H-imidazol-1-y1)-5-(trifluoromethyl)phenyl)indoline-6-carboxamide], the Ki in assay [1] (setting [4]) and in assay [2] (setting [5]) was < 25 nM in each case. In assay [3], this compound registered an IC50 of 50 to 80 nM.
Turning to `CN1CCN(Cc2cc(NC(=O)c3ccc4c(c3)N(C(=O)c3cnc5ccccn35)CC4)cc(C(F)(F)F)c2)CC1` [Example 14, 1-(imidazo[1,2-a]pyridine-3-carbonyl)-N-(3-((4-methylpiperazin-1-yl)methyl)-5-(trifluoromethyl)phenyl)indoline-6-carboxamide], the Ki in assay [1] (setting [4]) and in assay [2] (setting [5]) was < 25 nM in each case. Moreover, in assay [3], the 50% inhibitory concentration (IC50) lay in the range of 25 to 50 nM.
Consider `CN1CCN(Cc2cc(NC(=O)c3ccc4c(c3)N(C(=O)c3cnc5cnccn35)CC4)cc(C(F)(F)F)c2)CC1` [Example 15, 1-(imidazo[1,2-a]pyrazine-3-carbonyl)-N-(3-((4-methylpiperazin-1-yl)methyl)-5-(trifluoromethyl)phenyl)indoline-6-carboxamide], for which the Ki in assay [1] (setting [4]) and in assay [2] (setting [5]) was < 25 nM each time. The compound further displayed a half-inhibitory concentration (IC50) in assay [3] of 50 to 80 nM.
Regarding `CN1CCN(Cc2cc(C(=O)Nc3ccc4c(c3)N(C(=O)c3cnc5ccccn35)CC4)cc(C(F)(F)F)c2)CC1` [Example 16, N-(1-(imidazo[1,2-a]pyridine-3-carbonyl)indolin-6-yl)-3-((4-methylpiperazin-1-yl)methyl)-5-(trifluoromethyl)benzamide], the Ki in assay [1] (setting [4]) and in assay [2] (setting [5]) was < 25 nM each time. The IC50 in assay [3] lay in the range of 25 to 50 nM.
Consider `CN1CCN(Cc2cc(C(=O)Nc3ccc4c(c3)N(Cc3ccc5ncsc5c3)CC4)cc(C(F)(F)F)c2)CC1` [Example 17, N-(1-(benzo[d]thiazol-6-ylmethyl)indolin-6-yl)-3-((4-methylpiperazin-1-yl)methyl)-5-(trifluoromethyl)benzamide], for which the Ki in assay [1] (setting [4]) and in assay [2] (setting [5]) was < 25 nM throughout. In assay [3], this compound showed an IC50 of 25 to 50 nM.
In the case of `CN1CCN(Cc2cc(C(=O)Nc3ccc4c(c3)N(Cc3cnc5cnccn35)CC4)cc(C(F)(F)F)c2)CC1` [Example 18, N-(1-(imidazo[1,2-a]pyrazin-3-ylmethyl)indolin-6-yl)-3-((4-methylpiperazin-1-yl)methyl)-5-(trifluoromethyl)benzamide], the inhibition constant Ki in assay [1] (setting [4]) and in assay [2] (setting [5]) was < 25 nM each time. The compound further returned an IC50 in assay [3] of 25 to 50 nM.
As for `CN1CCN(Cc2cc(NC(=O)c3ccc4c(c3)N(C(=O)Cc3cnc5ccccn35)CC4)cc(C(F)(F)F)c2)CC1` [Example C1, 1-(2-(imidazo[1,2-a]pyridin-3-yl)acetyl)-N-(3-((4-methylpiperazin-1-yl)methyl)-5-(trifluoromethyl)phenyl)indoline-6-carboxamide], the inhibition constant (Ki) was > 600 nM and 58000 nM in assay [1] (setting [6]); 58000 nM in assay [2] (setting [7]).
Regarding `CN1CCN(Cc2cc(C(=O)Nc3ccc4c(c3)N(C(=O)Cc3cnc5ccccn35)CC4)cc(C(F)(F)F)c2)CC1` [Example C2, N-(1-(2-(imidazo[1,2-a]pyridin-3-yl)acetyl)indolin-6-yl)-3-((4-methylpiperazin-1-yl)methyl)-5-(trifluoromethyl)benzamide], the values for the Ki in assay [1] (setting [6]) and in assay [2] (setting [7]) were 600 nM and 58000 nM, respectively.
